# Test results published in patent US20260200943A1, “COMPOUNDS FOR TREATING CANCER” (Genesis Therapeutics, Inc., priority 2022, published 2026).
# Legend:
# Type in all cases: biochemical
# [1] = target: T1, CDK2/CyclinA2 (Homo sapiens, UniProt P24941); experiment: CDK2/Cyclin A2 Mobility Shift Assay (Caliper, Table B); conditions: for Ki: Caliper mobility shift, 10xKm, read-out: CDK2/CCNA2 Caliper 10xKm Ki: Average Ki
# T1 construct: Wild-type, full length CDK2 in complex with wildtype, full length CyclinA2: Carna Cat #04-103; purchased Carna 04-103
# Method: 10 nL of 2000× compound in 100% DMSO is added to a 384-well polypropylene assay plate. 15 μL of 1.3×CDK2/A2 and 1.3× fluorescent substrate (Wild-type, full length CDK2 in complex with wildtype, full length CyclinA2: Carna Cat #04-103 and FL-Peptide 18: PerkinElmer Cat #760362) diluted in kinase buffer (50 mM Hepes, 0.01% Brij-35, 10 mM MgCl2, 1 mM EGTA, 0.05% BSA, and 2 mM DTT) is added to the plates on top of the compound, mixed, and pre-incubated for 30 minutes at room temperature. The fluorescently labeled peptide substrate is phosphorylated by CDK2/A2 upon ATP hydrolysis. Following the incubation, 5 μL of 4×ATP diluted in kinase buffer is added to the plate to initiate the reaction. Following the 30-minute incubation, the reaction is stopped by adding 75 μL of stopping buffer containing 0.5 M EDTA.
# (§1) The assay plate is then read on a Lab Chip EZ Reader which separates the fluorescently labeled substrate and product peptides through a mobility difference. The phosphorylation of the substrate imparts a negative charge, which allows differences in separation as both are pulled through the microfluidic chip. The ratio of substrate and product values are used to generate percent conversion. These raw percent conversion values are normalized to calculate percent inhibition, which are fit to a four-parameter logistic curve and IC50 values are calculated. IC50 values are converted to Ki through using substrate and Km^app values, and the Cheng-Prusoff equation.
# [2] = target: CDK9/CyclinT1 (Homo sapiens, UniProt P50750); experiment: CDK9/CyclinT1 Mobility Shift Assay (Caliper, Table B); design: Wild-type, full length CDK9 in complex with wildtype, CyclinT1 (1-259): Biortus Cat #BP480/792/691; purchased Biortus BP480/792/691; conditions: read-out: CDK9/Cyclin T1 Caliper Ki: Average Ki
# CDK9/CyclinT1, sequence (P50750 whole entry): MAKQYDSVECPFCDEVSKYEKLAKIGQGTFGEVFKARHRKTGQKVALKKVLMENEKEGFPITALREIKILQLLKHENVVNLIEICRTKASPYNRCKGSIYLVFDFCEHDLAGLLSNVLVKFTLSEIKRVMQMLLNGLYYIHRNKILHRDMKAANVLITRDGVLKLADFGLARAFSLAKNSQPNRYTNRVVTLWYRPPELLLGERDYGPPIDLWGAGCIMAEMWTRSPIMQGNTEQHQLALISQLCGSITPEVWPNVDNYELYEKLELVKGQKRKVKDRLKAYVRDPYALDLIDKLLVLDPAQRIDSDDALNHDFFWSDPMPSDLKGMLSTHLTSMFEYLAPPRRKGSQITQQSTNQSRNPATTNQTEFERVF
# CDK9/CyclinT1, sequence (O60563 1-259 partner limits assumed): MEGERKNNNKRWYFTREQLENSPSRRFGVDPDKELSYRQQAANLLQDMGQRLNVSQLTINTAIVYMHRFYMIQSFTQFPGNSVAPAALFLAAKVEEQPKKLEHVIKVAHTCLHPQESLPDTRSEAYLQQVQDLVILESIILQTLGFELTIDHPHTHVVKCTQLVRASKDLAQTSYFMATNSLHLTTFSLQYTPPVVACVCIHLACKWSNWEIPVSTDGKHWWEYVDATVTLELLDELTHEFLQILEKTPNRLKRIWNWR
# Method: (§2) 10 nL of 2000× compound in 100% DMSO is added to a 384-well polypropylene assay plate. 15 μL of 1.3×CDK9/T1 and 1.3× fluorescent substrate (Wild-type, full length CDK9 in complex with wildtype, CyclinT1 (1-259): Biortus Cat #BP480/792/691 and FL-Peptide 34: PerkinElmer Cat #760643) diluted in kinase buffer (50 mM Hepes, 0.01% Brij-35, 10 mM MgCl2, 1 mM EGTA, 0.05% BSA, and 2 mM DTT) is added to the plates on top of the compound, mixed, and pre-incubated for 30 minutes at room temperature. The fluorescently labeled peptide substrate is phosphorylated by CDK9/T1 upon ATP hydrolysis. Following the incubation, 5 μL of 4×ATP diluted in kinase buffer is added to the plate to initiate the reaction. Following the 30-minute incubation, the reaction is stopped by adding 75 μL of stopping buffer containing 0.5 M EDTA.
# as §1, with “Ki” for “Ki through”, “substrate, Kmapp” for “substrate and Km^app”
# [3] = target: T2, CDK6/CyclinD3 (Homo sapiens, UniProt Q00534); experiment: CDK6/Cyclin D3 Mobility Shift Assay (Caliper, Table B); conditions: read-out: CDK6/CCND3 Caliper Ki: Average Ki
# T2 construct: Wild-type, full length CDK6 in complex with wildtype, full length CyclinD3: Carna Cat #04-107; purchased Carna 04-107
# T2 sequence (Q00534 whole entry): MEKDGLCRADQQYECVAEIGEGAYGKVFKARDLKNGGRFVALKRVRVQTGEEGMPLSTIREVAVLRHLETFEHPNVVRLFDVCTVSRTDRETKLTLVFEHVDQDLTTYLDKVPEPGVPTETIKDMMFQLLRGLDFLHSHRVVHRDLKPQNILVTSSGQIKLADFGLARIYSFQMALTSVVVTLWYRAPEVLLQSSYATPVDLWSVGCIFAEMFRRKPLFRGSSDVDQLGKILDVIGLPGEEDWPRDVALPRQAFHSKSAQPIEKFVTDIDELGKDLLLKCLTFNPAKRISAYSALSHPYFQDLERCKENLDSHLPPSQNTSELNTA
# T2 sequence (P30281 whole entry partner): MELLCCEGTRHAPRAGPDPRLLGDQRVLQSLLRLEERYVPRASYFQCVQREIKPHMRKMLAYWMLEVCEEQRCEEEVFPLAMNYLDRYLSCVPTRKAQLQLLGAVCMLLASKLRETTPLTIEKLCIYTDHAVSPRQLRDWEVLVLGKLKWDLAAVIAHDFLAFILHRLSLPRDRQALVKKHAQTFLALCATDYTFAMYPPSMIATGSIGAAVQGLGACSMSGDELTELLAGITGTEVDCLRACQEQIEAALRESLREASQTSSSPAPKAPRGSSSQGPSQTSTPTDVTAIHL
# Method: as §2, with “1.3×CDK6/D3” for “1.3×CDK9/T1”, “CDK6” for “CDK9”, “full length CyclinD3: Carna” for “CyclinT1 (1-259): Biortus”, “#04-107” for “#BP480/792/691”, “CDK6/D3” for “CDK9/T1”
# as §1
# [4] = target: T1, CDK2/CyclinA2; experiment: CDK2/CyclinA2 ChEF Assay (AQT, Table C); conditions: 10xKm; for Ki: AQT ChEF, read-out: CDK2/CCNA2 AQT10xKm Ki: Average Ki
# Method: 16 nL of 1000× compound in 100% DMSO is added to a 384-well low volume, black assay plate. 12 μL of 1.3×CDK2/CyclinA2 (Wild-type, full length CDK2 in complex with wildtype, full length CyclinA2: Carna Cat #04-103 diluted in assay buffer (54 mM Hepes, 0.012% Brij-35, 10 mM MgCl2, 0.55 mM EGTA, 1% Glycerol, 0.02% BSA, and 1.2 mM DTT) is added to the plates on top of the compound and pre-incubated for 30 minutes at room temperature. Following the incubation, 4 uL of 4×Sox-chromophore (CSox) labeled peptide substrate (AQT0297, AssayQuant) & ATP diluted in assay buffer is added to the plate to initiate the reaction. The assay is incubated at room temperature for 90 min after initiation. The CSox peptide substrate is phosphorylated by CDK2/A2 upon ATP hydrolysis.
# The fluorescent intensity measurement of the assay plate is read on a microplate reader once the assay is initiated and again at the completion of the assay. Phosphorylation of the CSox-based peptide substrate sensor results in an immediate increase in fluorescence. These raw fluorescence intensity values are normalized to calculate percent inhibition, which are fit to a four-parameter logistic curve and IC50 values are calculated. IC50 values are converted to Ki using substrate, KM^app values, and the Cheng-Prusoff equation.
Compound,Ki [1] [nM],CDK2/CCNA2 Caliper 10xKm Ki: CDK2/A2 Selectivity over CDK1/B1 ([1]; Caliper),CDK2/CCNA2 Caliper 10xKm Ki: CDK2/A2 Selectivity over CDK9 ([1]; Caliper),Ki [2] [nM],"CDK2/CCNA2 Caliper 10xKm Ki: CDK2/A2 Selectivity over CDK6/D3 ([1]; Caliper, selectivity over CDK6/D3)",Ki [3] [nM],Ki [4] [nM],CDK2/CCNA2 AQT10xKm Ki: CDK2/A2 Selectivity over CDK1/B1 ([4]; AQT),"CDK2/CCNA2 AQT10xKm Ki: CDK2/A2 selectivity over CDK4/D1 ([4]; AQT, selectivity over CDK4/D1)","CDK2/CCNA2 AQT10xKm Ki: CDK2/A2 selectivity over CDK6/D3 ([4]; AQT, selectivity over CDK6/D3)",CDK2/CCNA2 AQT10xKm Ki: CDK2/A2 Selectivity over CDK9 ([4]; AQT)
"CN1CCNC(=O)O[C@@H]2CC[C@@H](C2)c2cc(n[nH]2)Nc2ccc(cc2F)S(=O)(=O)NCC1 [Compound 100, (1^1S, 1^3R,Z)-4^2-fluoro-9-methyl-2^1H-14-oxa-5-thia-3,6,9,12-tetraaza-2(5,3)-pyrazola-4(1,4)-benzena-1(1,3)-cyclopentanacyclotetradecaphan-13-one 5,5-dioxide]",1 to 25,A (A>10),A (A>10),≥ 100,,,,,,,
"CC1(C)CCCNS(=O)(=O)c2ccc(c(F)c2)Nc2cc([nH]n2)[C@H]2CC[C@H](C2)OC(=O)N1 [Compound 101, (1^1S,1^3R,Z)-4^2-fluoro-10,10-dimethyl-2^1H-13-oxa-5-thia-3,6,11-triaza-2(5,3)-pyrazola-4(1,4)-benzena-1(1,3)-cyclopentanacyclotridecaphan-12-one 5,5-dioxide]",1 to 25,A (A>10),A (A>10),≥ 100,,,,,,,
"NS(=O)(=O)c1ccc2cc1OCCCCCNC(=O)O[C@@H]1CC[C@@H](C1)c1cnc(nc1)N2 (stereo in doubt) [Compound 105, rel-(2S,5R)-7-oxo-6,14-dioxa-8,20,22,25-tetraazatetracyclo[19.2.2.1^{2,5}.1^{15,19}]heptacosa-1(23),15,17,19(26),21,24-hexaene-16-sulfonamide]",,,,≥ 100,,,< 1,A (A>10),A (A>10),A (A>10),A (A>10)
"O=C1NCCCNS(=O)(=O)c2ccc(c(F)c2)Nc2cc([nH]n2)[C@H]2CC[C@H](C2)O1 [Compound 98, (1^1S, 1^3R,Z)-4^2-fluoro-2^1H-12-oxa-5-thia-3,6, 10-triaza-2(5,3)-pyrazola-4(1,4)-benzena-1(1,3)-cyclopentanacyclododecaphan-11-one 5,5-dioxide]",25 to 100,A (A>10),A (A>10),≥ 100,,,,,,,
"O=C1NCCCCCCn2cc(cn2)S(=O)(=O)N2CCC(CC2)Nc2cc([nH]n2)[C@H]2CC[C@H](C2)O1 [Compound 97, (1^1S,1^3R,2^4Z,6^4E)-2^1H,6^1H-15-oxa-5-thia-3,13-diaza-4(4,1)-piperidina-2(5,3),6(4,1)-dipyrazola-1(1,3)-cyclopentanacyclopentadecaphan-14-one 5,5-dioxide]",1 to 25,A (A>10),A (A>10),≥ 100,,,< 1,A (A>10),,,A (A>10)

# Other lines, results leading:
Ki [1] [nM],CDK2/CCNA2 Caliper 10xKm Ki: CDK2/A2 Selectivity over CDK1/B1 ([1]; Caliper),CDK2/CCNA2 Caliper 10xKm Ki: CDK2/A2 Selectivity over CDK9 ([1]; Caliper),Ki [2] [nM],"CDK2/CCNA2 Caliper 10xKm Ki: CDK2/A2 Selectivity over CDK6/D3 ([1]; Caliper, selectivity over CDK6/D3)",Ki [3] [nM],Ki [4] [nM],CDK2/CCNA2 AQT10xKm Ki: CDK2/A2 Selectivity over CDK1/B1 ([4]; AQT),"CDK2/CCNA2 AQT10xKm Ki: CDK2/A2 selectivity over CDK4/D1 ([4]; AQT, selectivity over CDK4/D1)","CDK2/CCNA2 AQT10xKm Ki: CDK2/A2 selectivity over CDK6/D3 ([4]; AQT, selectivity over CDK6/D3)",CDK2/CCNA2 AQT10xKm Ki: CDK2/A2 Selectivity over CDK9 ([4]; AQT),Compound
1 to 25,A (A>10),A (A>10),25 to 100,,,,,,,,"O=C1NCCCCCNS(=O)(=O)c2ccc(c(F)c2)Nc2cc([nH]n2)[C@H]2CC[C@H](C2)O1 [Compound 90, (1^1S,1^3R,Z)-4^2-fluoro-2^1H-14-oxa-5-thia-3,6,12-triaza-2(5,3)-pyrazola-4(1,4)-benzena-1(1,3)-cyclopentanacyclotetradecaphan-13-one 5,5-dioxide]"
1 to 25,A (A>10),A (A>10),≥ 100,,,,,,,,"O=C1NCCCCCn2cc(cn2)S(=O)(=O)N2CCC(CC2)Nc2cc([nH]n2)[C@H]2CC[C@H](C2)O1 [Compound 96, (1^1S,1^3R,2^4Z,6^4E)-2^1H,6^1H-14-oxa-5-thia-3,12-diaza-4(4,1)-piperidina-2(5,3),6(4,1)-dipyrazola-1(1,3)-cyclopentanacyclotetradecaphan-13-one 5,5-dioxide]"
25 to 100,B (5≤B<10),B (5≤B<10),≥ 100,,,,,,,,"O=C1NCCCn2cc(cn2)S(=O)(=O)N2CCC(CC2)Nc2cc([nH]n2)[C@H]2CC[C@H](C2)O1 [Compound 95, (1^1S, 1^3R,2^4Z,6^4E)-2^1H,6^1H-12-oxa-5-thia-3,10-diaza-4(4,1)-piperidina-2(5,3),6(4,1)-dipyrazola-1(1,3)-cyclopentanacyclododecaphan-11-one 5,5-dioxide]"
< 1,A (A>10),A (A>10),≥ 100,A (A>10),≥ 100,,,,,,"O=C1NCC=CCNS(=O)(=O)c2ccc(c(F)c2)Nc2cc([nH]n2)[C@H]2CC[C@H](C2)O1 [Compound 102, (1^1S,1^3R,2^4Z)-4^2-fluoro-2^1H-13-oxa-5-thia-3,6,11-triaza-2(5,3)-pyrazola-4(1,4)-benzena-1(1,3)-cyclopentanacyclotridecaphan-8-en-12-one 5,5-dioxide]"
1 to 25,A (A>10),A (A>10),1 to 25,,,,,,,,"O=C1NCCOCCNS(=O)(=O)c2ccc(c(F)c2)Nc2cc([nH]n2)[C@H]2CC[C@H](C2)O1 [Compound 89, (1^1S,1^3R,Z)-4^2-Fluoro-2^1H-9,14-dioxa-5-thia-3,6,12-triaza-2(5,3)-pyrazola-4(1,4)-benzena-1(1,3)-cyclopentanacyclotetradecaphan-13-one 5,5-dioxide]"
